Assay results taken from patent US9862746B2, “Compositions and methods relating to hindering DOT1L recruitment by MLL-fusion proteins” (The Regents of the University of Michigan, priority 2013, dated 2018).
Where a SMILES comes first, the peptide text is derived from it. [ ]: non-standard residue; d: D form. The star is where a group is joined. 5FAM = O=C1OC2(c3ccc(O)cc3Oc3cc(O)ccc32)c2ccc(C(=O)*)cc21; βAla = NCCC(=O)O

Target: T1, ENL L550E (Homo sapiens, UniProt Q03111, L550E)
T1 construct: MBP-ENL (489-559) L550E; made in house; host or cells: Escherichia coli BL21 (DE3)
T1 sequence (Q03111 489-559 L550E): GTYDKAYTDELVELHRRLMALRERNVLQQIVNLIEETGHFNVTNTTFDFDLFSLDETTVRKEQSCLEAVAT
Test: FP saturation binding of Flu-DOT1L 10 mer to mutated ENL
Method: To further map and determined the residues in C-terminal domain of ENL that are essential for the interaction with DOT1L (so called “hot-spots”), an ENL mutant, L550E (FIG. 7A), was prepared which was reported to block the transforming capacity of MLL-ENL fusion protein (see, e.g., Yokoyama, A., et al., (2010) Cancer cell 17, 198-212).
Fluorescence polarization (FP) assay—FP experiments were performed in 96-well, black, round-bottom plates (Corning) using the plate reader (Biotek H1 hybrid). Fluorescein tagged DOT1L 10 mer peptide (Flu-DOT1L) was used as a fluorescent probe in the FP based binding assays. […] The plate was mixed on a shaker and incubated at room temperature to reach equilibrium. The polarization values in milli-polarization units (mP) were measured at an excitation wavelength at 485 nm and an emission wavelength at 530 nm. Polarization data were analyzed using GraphPad Prism 5.0 by non-linear fitting with a one-site binding model.

`CC[C@H](C)[C@H](NC(=O)[C@@H]1CCCN1C(=O)[C@H](CC(C)C)NC(=O)CCNC(=O)CCNC(=O)[C@H](CCCCNC(=O)c1ccc2c(c1)C(=O)OC21c2ccc(O)cc2Oc2cc(O)ccc21)NC(C)=O)C(=O)N[C@@H](CO)C(=O)N[C@H](C(=O)N1CCC[C@H]1C(=O)N[C@@H](CC(C)C)C(=O)N[C@@H](CO)C(=O)N[C@H](C(=O)N[C@H](C(N)=O)C(C)C)[C@@H](C)O)[C@@H](C)CC` [fluorescent labeled DOT1L 10-mer peptide] (Ac-K(5FAM)[βAla][βAla]LPISIPLSTV-NH2) was tested, and the “binding to ENL L550E mutant protein” value was “did not show binding”.
